Assay results taken from patent US9096640B2, “17-hydroxy-17-pentafluoroethyl-estra-4,9(10)-diene-11-methylene oxyalkylene aryl derivatives, process for preparation thereof, and use thereof for treatment of diseases” (Bayer Intellectual Property, priority 2009, dated 2015).

How the values were obtained:
[1] = target: T1, human progesterone receptor A (Homo sapiens, UniProt P06401); assay: Progesterone receptor transactivation test in stably transfected SK-N-MC cells (PR-A, MMTV-LUC reporter); assay type: cell-based; conditions: 24 hours, in presence of 0.1 nmol/l promegestone, luciferase reporter, read-out: PR-A IC50 (antagonistic potency)
T1 construct: expressed in transfected cells; host or cells: SK-N-MC human neuroblastoma cells, stably transfected with pRChPR-A-neo and pMMTV-LUC
T1 sequence (P06401 1-769 isoform P06401-2): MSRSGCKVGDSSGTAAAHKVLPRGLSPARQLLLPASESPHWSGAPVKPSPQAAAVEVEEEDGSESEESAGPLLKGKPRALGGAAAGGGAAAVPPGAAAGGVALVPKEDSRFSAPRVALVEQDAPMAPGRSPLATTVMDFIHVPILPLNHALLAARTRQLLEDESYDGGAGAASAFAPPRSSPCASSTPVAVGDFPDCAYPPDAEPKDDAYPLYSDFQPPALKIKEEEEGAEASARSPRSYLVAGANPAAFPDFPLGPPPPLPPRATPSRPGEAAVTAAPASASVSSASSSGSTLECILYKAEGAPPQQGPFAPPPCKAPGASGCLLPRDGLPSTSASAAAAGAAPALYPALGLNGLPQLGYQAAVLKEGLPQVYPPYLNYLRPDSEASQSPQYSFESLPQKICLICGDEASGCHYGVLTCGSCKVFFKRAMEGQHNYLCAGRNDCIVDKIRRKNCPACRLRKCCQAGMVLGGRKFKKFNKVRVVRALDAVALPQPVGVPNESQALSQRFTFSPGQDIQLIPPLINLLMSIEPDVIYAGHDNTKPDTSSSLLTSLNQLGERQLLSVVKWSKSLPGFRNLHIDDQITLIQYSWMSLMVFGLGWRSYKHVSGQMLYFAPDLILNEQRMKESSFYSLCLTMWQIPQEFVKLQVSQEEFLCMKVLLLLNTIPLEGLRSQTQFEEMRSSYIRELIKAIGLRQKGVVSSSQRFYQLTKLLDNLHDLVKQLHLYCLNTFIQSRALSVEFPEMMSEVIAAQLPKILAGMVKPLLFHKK
Description: (§1) Progesterone Receptor-Antagonistic Action in Stable Transfectants of Human Neuroblastoma Cells (SK-N-MC Cells) with the Human Progesterone A or Progesterone B Receptor and an MN-LUC Reporter Construct
(§2) SK-N-MC cells (human neuroblastoma cells) which have been stably transfected with plasmids expressing the human progesterone receptor B (pRChPR-B-neo) or the human progesterone receptor A (pRChPR-A-neo) and a reporter construct (pMMTV-LUC) were incubated for 24 hours either in the absence (negative control) or in the presence of ascending amounts of the particular test compound (0.01 nmol/l, 0.1 nmol/l, 1 nmol/l, 10 nmol/l, 100 nmol/l and […]), in order to determine the agonistic efficacy. As a positive control of the reporter gene induction, the cells were treated with the synthetic gestagen promegestone (0.01 nmol/l, 0.1 nmol/l, 1 nmol/l, 10 nmol/l, 100 nmol/l and […]). To determine the antagonistic activity, the cells were treated with 0.1 nmol/l promegestone and additionally with ascending amounts of the particular test compound (0.01 nmol/l, 0.1 nmol/l, 1 nmol/l, 10 nmol/l, 100 nmol/l and […]). The activity of the reporter gene LUC (LUC=luciferase) was determined in the cell lysates and measured as RLU (relative light units). All measurements are reported as % efficacy and as […] and […] concentrations.

[2] = target: T2, human progesterone receptor B (Homo sapiens, UniProt P06401); assay: Progesterone receptor transactivation test in stably transfected SK-N-MC cells (PR-B, MMTV-LUC reporter); assay type: cell-based; conditions: 24 hours, in presence of 0.1 nmol/l promegestone, luciferase reporter, read-out: PR-B IC50 (antagonistic potency)
T2 construct: expressed in transfected cells; host or cells: SK-N-MC human neuroblastoma cells, stably transfected with pRChPR-B-neo and pMMTV-LUC
T2 sequence (P06401 1-933): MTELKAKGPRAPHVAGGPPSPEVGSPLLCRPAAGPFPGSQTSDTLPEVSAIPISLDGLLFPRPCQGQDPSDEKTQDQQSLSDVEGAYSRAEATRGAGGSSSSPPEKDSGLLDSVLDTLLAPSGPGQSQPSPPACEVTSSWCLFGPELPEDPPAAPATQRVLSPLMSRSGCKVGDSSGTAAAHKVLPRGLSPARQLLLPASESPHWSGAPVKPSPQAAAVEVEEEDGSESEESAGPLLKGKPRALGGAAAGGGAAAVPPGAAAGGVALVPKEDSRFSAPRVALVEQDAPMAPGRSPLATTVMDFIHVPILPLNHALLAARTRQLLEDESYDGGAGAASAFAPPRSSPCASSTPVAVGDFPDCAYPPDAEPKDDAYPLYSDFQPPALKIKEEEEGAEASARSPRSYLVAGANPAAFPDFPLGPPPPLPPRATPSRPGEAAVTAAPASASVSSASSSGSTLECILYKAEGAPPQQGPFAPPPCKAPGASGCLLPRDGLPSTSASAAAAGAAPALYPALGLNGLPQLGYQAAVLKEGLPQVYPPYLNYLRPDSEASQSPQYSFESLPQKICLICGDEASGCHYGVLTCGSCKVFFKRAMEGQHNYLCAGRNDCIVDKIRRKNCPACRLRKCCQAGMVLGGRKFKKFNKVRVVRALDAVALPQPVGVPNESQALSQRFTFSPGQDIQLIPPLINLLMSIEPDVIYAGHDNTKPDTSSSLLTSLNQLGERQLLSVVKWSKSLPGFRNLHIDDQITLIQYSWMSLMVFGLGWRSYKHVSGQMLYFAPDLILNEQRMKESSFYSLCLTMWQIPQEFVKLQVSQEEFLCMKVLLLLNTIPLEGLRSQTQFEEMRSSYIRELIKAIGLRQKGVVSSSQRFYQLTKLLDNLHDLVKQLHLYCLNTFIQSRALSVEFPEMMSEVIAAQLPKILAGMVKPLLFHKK
Description: as §1, §2

Compound	IC50 [1]	IC50 [2]
CC(OCC(=O)O)c1ccc([C@H]2C[C@@]3(C)C(CC[C@@]3(O)C(F)(F)C(F)(F)F)C3CCC4=CC(=O)CCC4=C32)cc1 (mixture of isomers) [Example 3, {(RS)-1-[4-((8S,11R,13S,14S,17S)-17-hydroxy-13-methyl-3-oxo-17-pentafluoroethyl-2,3,6,7,8,11,12,13,14,15,16,17-dodecahydro-1H-cyclopenta[a]phenanthren-11-yl)phenyl]ethoxy}acetic acid]	13 nM	9.8 nM
C[C@]12C[C@H](c3ccc(CCOCC(=O)O)cc3)C3=C4CCC(=O)C=C4CC[C@H]3[C@@H]1CC[C@@]2(O)C(F)(F)C(F)(F)F [Example 6, {2-[4-((8S,11R,13S,14S,17S)-17-hydroxy-13-methyl-3-oxo-17-pentafluoroethyl-2,3,6,7,8,11,12,13,14,15,16,17-dodecahydro-1H-cyclopenta[a]phenanthren-11-yl)-phenyl]ethoxy}acetic acid]	3 nM	12 nM
CC(OCCO)c1ccc(C2C[C@@]3(C)C(CC[C@@]3(O)C(F)(F)C(F)(F)F)C3CCC4=CC(=O)CCC4=C23)cc1 (mixture of isomers) [Example 1A, (8S,11R,13S,14S,17S)-17-hydroxy-11-{4-[(1RS)-1-(2-hydroxyethoxy)ethyl]phenyl}-13-methyl-17-pentafluoroethyl-1,2,6,7,8,11,12,13,14,15,16,17-dodecahydro-cyclopenta[a]phenanthren-3-one]	0.12 nM	0.36 nM
COC(C)c1ccc(C2C[C@@]3(C)C(CC[C@@]3(O)C(F)(F)C(F)(F)F)C3CCC4=CC(=O)CCC4=C23)cc1 (mixture of isomers) [Example 1B, (8S,11R,13S,14S,17S)-17-hydroxy-11-[4-((1RS)-1-methoxyethyl)phenyl]-13-methyl-17-pentafluoroethyl-1,2,6,7,8,11,12,13,14,15,16,17-dodecahydrocyclopenta[a]phenanthren-3-one]	0.1 nM	0.1 nM

Further compounds by falling IC50 [1], results first:

IC50 [1]	IC50 [2]	Compound
0.1 nM	0.1 nM	CC(OCC#N)c1ccc([C@H]2C[C@@]3(C)C(CC[C@@]3(O)C(F)(F)C(F)(F)F)C3CCC4=CC(=O)CCC4=C32)cc1 (mixture of isomers) [Example 5, {(RS)-1-[4-((8S,11R,13S,14S,17S)-17-hydroxy-13-methyl-3-oxo-17-pentafluoroethyl-2,3,6,7,8,11,12,13,14,15,16,17-dodecahydro-1H-cyclopenta[a]phenanthren-11-yl)phenyl]ethoxy}acetonitrile]
0.1 nM	0.1 nM	C[C@]12C[C@H](c3ccc(CCOCCO)cc3)C3=C4CCC(=O)C=C4CC[C@H]3[C@@H]1CC[C@@]2(O)C(F)(F)C(F)(F)F [Example 7, (8S,11R,13S,14S,17S)-17-hydroxy-11-{4-[2-(2-hydroxyethoxy)ethyl]phenyl}-13-methyl-17-pentafluoroethyl-1,2,6,7,8,11,12,13,14,15,16,17-dodecahydro-cyclopenta[a]phenanthren-3-one]
0.1 nM	0.12 nM	CC(OCC(=O)OC(C)(C)C)c1ccc([C@H]2C[C@@]3(C)C(CC[C@@]3(O)C(F)(F)C(F)(F)F)C3CCC4=CC(=O)CCC4=C32)cc1 (mixture of isomers) [Example 2, {(1RS)-1-[4-((8S,11R,13S,14S,17S)-17-hydroxy-13-methyl-3-oxo-17-pentafluoroethyl-2,3,6,7,8,11,12,13,14,15,16,17-dodecahydro-1H-cyclopenta[a]phenanthren-11-yl)phenyl]ethoxy}acetic acid tert-butyl ester]
0.1 nM	0.1 nM	CC(C)(C)OC(=O)COCCc1ccc([C@H]2C[C@@]3(C)[C@@H](CC[C@@]3(O)C(F)(F)C(F)(F)F)[C@@H]3CCC4=CC(=O)CCC4=C32)cc1 [Example 4, {2-[4-((8S,11R,13S,14S,17S)-17-hydroxy-13-methyl-3-oxo-17-pentafluoroethyl-2,3,6,7,8,11,12,13,14,15,16,17-dodecahydro-1H-cyclopenta[a]phenanthren-11-yl)-phenyl]ethoxy}acetic acid tert-butyl ester]
0.06 nM	0.1 nM	Cc1nc2cc(COC(C)c3ccc(C4C[C@@]5(C)C(CC[C@@]5(O)C(F)(F)C(F)(F)F)C5CCC6=CC(=O)CCC6=C45)cc3)ccc2s1 (mixture of isomers) [Example 8, (8S,11R,13S,14S,17S)-17-hydroxy-13-methyl-11-{4-[(RS)-1-(2-methylbenzothiazol-5-ylmethoxy)ethyl]phenyl}-17-pentafluoroethyl-1,2,6,7,8,11,12,13,14,15,16,17-dodecahydro-cyclopenta[a]phenanthren-3-one]
